Test results: patent publication US11414431B2, “Substituted pyrazolo[1,5-a]pyrimidines as TYK2 inhibitors” (Nimbus Lakshmi, Inc., priority 2018, dated 2022)

These compounds were tested against human TYK2 (JH2domain-pseudokinase) (Homo sapiens (Human), UniProt P29597) (assay: TYK2 JH2 Domain Binding Assay (KINOMEscan)). Settings: 11-point 3-fold dilution, top concentration 30,000 nM, duplicate; read-out: hTYK2_JH2_Binding (Kd; nM).
Procedure: Binding constants for compounds of the present invention against the JH2 domain were determined by the following protocol for a KINOMEscan® assay (DiscoveRx). A fusion protein of a partial length construct of human TYK2 (JH2domain-pseudokinase) (amino acids G556 to D888 based on reference sequence NP_003322.3) and the DNA binding domain of NFkB was expressed in transiently transfected HEK293 cells. From these HEK 293 cells, extracts were prepared in M-PER extraction buffer (Pierce) in the presence of Protease Inhibitor Cocktail Complete (Roche) and Phosphatase Inhibitor Cocktail Set II (Merck) per manufacturers' instructions. The TYK2(JH2domain-pseudokinase) fusion protein was labeled with a chimeric double-stranded DNA tag containing the NFkB binding site (5′-[…]-3′) fused to an amplicon for qPCR readout, which was added directly to the expression extract (the final concentration of DNA-tag in the binding reaction is 0.1 nM).
The liganded beads were blocked with excess biotin and washed with blocking buffer (SeaBlock (Pierce), 1% BSA, 0.05% Tween 20, 1 mM DTT) to remove unbound ligand and to reduce nonspecific binding.
Extracts were loaded with DNA-tag and diluted into the binding reaction in a two step process. First extracts were diluted 1:100 in 1× binding buffer (PBS/0.05% Tween 20/10 mM DTT/0.1% BSA/2 μg/ml sonicated salmon sperm DNA) containing 10 nM DNA-tag. This dilution was allowed to equilibrate at room temperature for 15 minutes and then subsequently diluted 1:100 in 1× binding buffer. […] Kds were determined using an 11-point 3-fold compound dilution series with three DMSO control points. […] The compounds were then diluted directly into the assays such that the final concentration of DMSO was 0.9%. All reactions performed in polypropylene 384-well plates. Each was a final volume of 0.02 mL. Assays were incubated with shaking for 1 hour at room temperature. Then the beads were pelleted and washed with wash buffer (lx PBS, 0.05% Tween 20) to remove displaced kinase and test compound. […] The qPCR protocol consisted of a 10 minute hot start at 95° C., followed by 35 cycles of 95° C. for 15 seconds, 60° C. for 1 minute.
Kds were determined using an 11-point 3-fold compound dilution series with three DMSO control points. […] The compounds were then diluted directly into the assays such that the final concentration of DMSO was 0.9%. The Kds were determined using a compound top concentration of 30,000 nM. Kd measurements were performed in duplicate.
Binding constants (Kds) were calculated with a standard dose-response curve using the Hill equation: […]
The Hill Slope was set to −1.

Chain of human TYK2 (JH2domain-pseudokinase) (P29597 556-888): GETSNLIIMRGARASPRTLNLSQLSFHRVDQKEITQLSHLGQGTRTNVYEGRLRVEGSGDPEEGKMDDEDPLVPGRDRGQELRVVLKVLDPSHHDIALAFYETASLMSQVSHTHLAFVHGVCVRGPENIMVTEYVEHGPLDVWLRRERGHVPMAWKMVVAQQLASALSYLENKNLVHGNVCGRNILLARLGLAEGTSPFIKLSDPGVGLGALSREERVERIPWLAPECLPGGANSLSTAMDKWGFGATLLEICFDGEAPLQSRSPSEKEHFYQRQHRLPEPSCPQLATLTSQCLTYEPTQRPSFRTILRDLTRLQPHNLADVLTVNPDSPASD

Kd [nM]	SMILES
0.2 to 1	CNc1cc(Nc2cccn([C@@H]3C[C@H]3F)c2=O)nc2c(C(=O)N[C@H]3CC[C@@H](O)C3)cnn12 [Compound I-43, 5-((1-((1R,2R)-2-Fluorocyclopropyl)-2-oxo-1,2-dihydropyridin-3-yl)amino)-N-((1S,3R)-3-hydroxycyclopentyl)-7-(methylamino)pyrazolo[1,5-a]pyrimidine-3-carboxamide]
0.2 to 1	CNc1cc(Nc2cccn([C@H]3C[C@@H]3F)c2=O)nc2c(C(=O)N[C@@H]3CC[C@@H]3O)cnn12 [Compound I-13, 5-((1-((1S,2S)-2-Fluorocyclopropyl)-2-oxo-1,2-dihydropyridin-3-yl)amino)-N-((1R,2S)-2-hydroxycyclobutyl)-7-(methylamino)pyrazolo[1,5-a]pyrimidine-3-carboxamide]
1 to 10	CNc1cc(Nc2cccn([C@H]3CC[C@H]3O)c2=O)nc2c(C(=O)N[C@H]3CC[C@H](OC)C3)cnn12 [Compound I-86, 5-((1-((1S,2R)-2-Hydroxycyclobutyl)-2-oxo-1,2-dihydropyridin-3-yl)amino)-N-((1S,3S)-3-methoxycyclopentyl)-7-(methylamino)pyrazolo[1,5-a]pyrimidine-3-carboxamide]
1 to 10	CNc1cc(Nc2cccn([C@H]3CC[C@H]3O)c2=O)nc2c(C(=O)NC3CCC[C@@H](OC)C3)cnn12 (stereo partly drawn) [Compound I-103, 5-((1-((1S,2R)-2-Hydroxycyclobutyl)-2-oxo-1,2-dihydropyridin-3-yl)amino)-N-((trans-1,3)-3-methoxycyclohexyl)-7-(methylamino)pyrazolo[1,5-a]pyrimidine-3-carboxamide]
0.2 to 1	CNc1cc(Nc2cccn([C@H]3C[C@@H]3F)c2=O)nc2c(C(=O)N[C@@H]3CC[C@H](O)C3)cnn12 [Compound I-44, 5-((1-((1S,2S)-2-Fluorocyclopropyl)-2-oxo-1,2-dihydropyridin-3-yl)amino)-N-((1R,3S)-3-hydroxycyclopentyl)-7-(methylamino)pyrazolo[1,5-a]pyrimidine-3-carboxamide]
0.2 to 1	CNc1cc(Nc2cccn([C@@H]3C[C@H]3F)c2=O)nc2c(C(=O)N[C@@H]3CC[C@H](O)C3)cnn12 [Compound I-42, 5-((1-((1R,2R)-2-Fluorocyclopropyl)-2-oxo-1,2-dihydropyridin-3-yl)amino)-N-((1R,3S)-3-hydroxycyclopentyl)-7-(methylamino)pyrazolo[1,5-a]pyrimidine-3-carboxamide]
1 to 10	CNc1cc(Nc2cccn([C@H]3CC[C@H]3O)c2=O)nc2c(C(=O)N[C@@H]3CCC[C@@H](OC)C3)cnn12 [Compound I-104, 5-((1-((1S,2R)-2-Hydroxycyclobutyl)-2-oxo-1,2-dihydropyridin-3-yl)amino)-N-((1R,3R)-3-methoxycyclohexyl)-7-(methylamino)pyrazolo[1,5-a]pyrimidine-3-carboxamide]

The next lines start with the compound.

SMILES	Kd [nM]
CNc1cc(-c2cn(C3CCOCC3)c3ncccc23)nc2c(C(=O)N[C@H]3CCC[C@H](O)C3)cnn12 [Compound I-65, N-((1S,3S)-3-Hydroxycyclohexyl)-7-(methylamino)-5-(1-(tetrahydro-2H-pyran-4-yl)-1H-pyrrolo[2,3-b]pyridin-3-yl)pyrazolo[1,5-a]pyrimidine-3-carboxamide]	< 0.2
CNc1cc(-c2cn(CCN3CCOCC3)c3ncccc23)nc2c(C(=O)N[C@@H]3CC[C@H]3OC)cnn12 [Compound I-55, N-((1R,2R)-2-Methoxycyclobutyl)-7-(methylamino)-5-(1-(2-morpholinoethyl)-1H-pyrrolo[2,3-b]pyridin-3-yl)pyrazolo[1,5-a]pyrimidine-3-carboxamide]	0.2 to 1
CNc1cc(Nc2cccn(-c3ccc(C)nc3)c2=O)nc2c(C(=O)N[C@H]3C[C@@H]3OC)cnn12 [Compound I-35, N-((1S,2S)-2-Methoxycyclopropyl)-5-((6′-methyl-2-oxo-2H-[1,3′-bipyridin]-3-yl)amino)-7-(methylamino)pyrazolo[1,5-a]pyrimidine-3-carboxamide]	< 0.2
CNc1cc(-c2cn([C@H]3COC[C@@H]3O)c3ncccc23)nc2c(C(=O)N[C@@H]3C[C@@H]3F)cnn12 [Compound I-501]	< 0.2
CNc1cc(Nc2cccn([C@@H]3CC[C@@H]3O)c2=O)nc2c(C(=O)N[C@H]3CCC[C@H](OC)C3)cnn12 [Compound I-100, 5-((1-((1R,2S)-2-Hydroxycyclobutyl)-2-oxo-1,2-dihydropyridin-3-yl)amino)-N-((1S,3S)-3-methoxycyclohexyl)-7-(methylamino)pyrazolo[1,5-a]pyrimidine-3-carboxamide]	0.2 to 1
CNc1cc(Nc2cccn(C3CC(F)(F)C3)c2=O)nc2c(C(=O)N[C@@H]3CCC[C@@](C)(O)C3)cnn12 [Compound I-92, 5-((1-(3,3-Difluorocyclobutyl)-2-oxo-1,2-dihydropyridin-3-yl)amino)-N-((1R,3R)-3-hydroxy-3-methylcyclohexyl)-7-(methylamino)pyrazolo[1,5-a]pyrimidine-3-carboxamide]	> 10
CNc1cc(-c2cn([C@H]3CCOC[C@@H]3O)c3ncccc23)nc2c(C(=O)N[C@@H]3C[C@@H]3F)cnn12 [Compound I-506]	< 0.2
CNc1cc(Nc2cccn(C3COC3)c2=O)nc2c(C(=O)N[C@H]3CC[C@H]3F)cnn12 [Compound I-161]	< 0.2
CNc1cc(Nc2cccn([C@H]3C[C@@H](OC)C3)c2=O)nc2c(C(=O)N[C@@H]3C[C@@H]3F)cnn12 [Compound I-9, N-((1R,2S)-2-Fluorocyclopropyl)-5-((1-((1s,3S)-3-methoxycyclobutyl)-2-oxo-1,2-dihydropyridin-3-yl)amino)-7-(methylamino)pyrazolo[1,5-a]pyrimidine-3-carboxamide]	< 0.2
CNc1cc(-c2cn(C3CN(C)C3)c3ncccc23)nc2c(C(=O)NC3COC[C@H]3O)cnn12 (stereo partly drawn) [Compound I-714]	> 10
CNc1cc(Nc2ccc(F)n(-c3ccccn3)c2=O)nc2c(C(=O)N[C@@H]3C[C@@H]3F)cnn12 [Compound I-474, 5-((6-Fluoro-2-oxo-2H-[1,2′-bipyridin]-3-yl)amino)-N-((1R,2S)-2-fluorocyclopropyl)-7-(methylamino)pyrazolo[1,5-a]pyrimidine-3-carboxamide]	1 to 10
CNc1cc(Nc2cccn(-c3ncco3)c2=O)nc2c(C(=O)N[C@H]3CC[C@H](OC)C3)cnn12 [Compound I-84, N-((1S,3S)-3-Methoxycyclopentyl)-7-(methylamino)-5-((1-(oxazol-2-yl)-2-oxo-1,2-dihydropyridin-3-yl)amino)pyrazolo[1,5-a]pyrimidine-3-carboxamide]	0.2 to 1
CNc1cc(-c2cn(CCN3CCOCC3)c3ncccc23)nc2c(C(=O)N[C@H]3CC[C@@H]3OC)cnn12 [Compound I-54, N-((1S,2S)-2-Methoxycyclobutyl)-7-(methylamino)-5-(1-(2-morpholinoethyl)-1H-pyrrolo[2,3-b]pyridin-3-yl)pyrazolo[1,5-a]pyrimidine-3-carboxamide]	< 0.2
CNc1cc(Nc2cccn(C3CC(F)(F)C3)c2=O)nc2c(C(=O)N[C@@H]3CCC[C@@]3(C)O)cnn12 [Compound I-91, 5-((1-(3,3-Difluorocyclobutyl)-2-oxo-1,2-dihydropyridin-3-yl)amino)-N-((1R,2R)-2-hydroxy-2-methylcyclopentyl)-7-(methylamino)pyrazolo[1,5-a]pyrimidine-3-carboxamide]	< 0.2
